Measured values taken from patent US12251373B2, “Compounds and methods of treating retinal degeneration” (CASE WESTERN RESERVE UNIVERSITY, priority 2017, dated 2025).

Legend:
[1] = Quantification of YC-001 in mouse eye by HPLC; format: in vivo
Description: To measure the amount of YC-001 in the eye following systemic delivery, YC-001 was administered to C57BL6 mice by i.p. injection at a dose of 200 mg kg^−1 bw. Mice then were euthanized at 30 min, 3 h and 24 h after these injections, and their eyes were removed for analysis. Eyes from two mice under the same treatment were homogenized on ice in 1 mL of PBS:methanol (1:1 ratio). Four-mL of hexanes were then added to the homogenized sample, and the mixture was vortexed for 15 s. The mixture was centrifuged at 3,220 g for 15 min at 4° C. to separate the hexanes from the aqueous layer. From the top hexane layer, 3.5 mL was transferred to a glass vial. This sample was then dried in a Savant speed vacuum concentrator (Thermofisher, Waltham, Massachusetts, USA) and dissolved in 300 μL methanol. One hundred-μL of dissolved sample were injected into an HPLC system connected to an Agilent Sil column (5 μm, 4.6×250 mm; Agilent Technologies, Santa Clara, CA) for separation with 10% ethyl acetate in hexanes at a flow rate 1.4 mL min^−1. A chromatogram of absorption at 340 nm was then obtained. A YC-001 standard was subjected to the same procedures as the ocular samples and used to establish a retention time at 13.2 min. By comparing ocular samples to its standard curve of YC-001, the amount of YC-001 was then quantified in pmol eye^−1 at different time points after its systemic administration. The identity of YC-001 in the peak fraction with a retention time of 13.2 min was confirmed by LC-MS using the same chromatography method as applied for HPLC.

ovine COX-1 = target: T1, ovine COX-1 (Ovis aries, UniProt P05979); assay: COX-1 activity assay; format: biochemical; conditions: up to 80 μM of YC-001
T1 construct: purchased Abcam
T1 sequence (P05979 25-600): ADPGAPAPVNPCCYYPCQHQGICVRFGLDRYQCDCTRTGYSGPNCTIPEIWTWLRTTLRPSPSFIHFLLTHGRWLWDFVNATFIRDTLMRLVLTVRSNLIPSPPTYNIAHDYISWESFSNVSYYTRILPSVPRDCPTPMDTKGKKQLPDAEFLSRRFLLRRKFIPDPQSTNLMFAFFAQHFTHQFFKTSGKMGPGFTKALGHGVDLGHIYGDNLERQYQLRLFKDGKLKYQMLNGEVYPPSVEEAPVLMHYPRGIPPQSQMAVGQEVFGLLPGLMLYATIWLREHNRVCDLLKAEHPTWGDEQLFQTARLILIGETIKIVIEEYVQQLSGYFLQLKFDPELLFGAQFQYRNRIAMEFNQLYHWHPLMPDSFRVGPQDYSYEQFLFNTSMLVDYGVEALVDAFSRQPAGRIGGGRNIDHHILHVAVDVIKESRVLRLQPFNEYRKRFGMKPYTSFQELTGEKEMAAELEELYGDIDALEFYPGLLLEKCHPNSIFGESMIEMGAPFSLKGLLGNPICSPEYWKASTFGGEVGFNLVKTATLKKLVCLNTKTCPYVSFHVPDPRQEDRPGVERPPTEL
Description: The effect of the compound YC-001 on cyclooxygenase 1 (COX-1) activity was evaluated using the COX1 Inhibitor Screening Kit (Abcam, Cambridge, MA, USA) according to the manufacture's protocol. Briefly, the assay is based on the fluorometric detection of Prostaglandin G2, the intermediate product generated by the COX-1 enzyme. COX reaction mix included ovine COX-1, COX probe and COX cofactor and was prepared in a 96-well plate. YC-001 working solutions were dissolved in DMSO, and then mixed with COX Reaction Mix to the final concentrations (80, 40, 20, 10, 5, 2.5, 1.25, 0.625, 0.312, 0.156, 0.078 and 0.039 μM). Equivalent volume of DMSO was used as vehicle control and SC560 was used as a positive control. All controls and samples were measured in triplicate. Then Arachidonic Acid was added into each well to initiate all the reactions at the same time. The fluorescence was measured at Ex/Em=535/587 nm in a kinetic mode for 15 min at 25° C. Five time points were chosen in the linear range of the plot and the corresponding values for the fluorescence were used to calculate the slope of the linear regression equation. Relative COX-1 activity was calculated as Equation 5: […]

human clarin-1 N48K = target: T2, human clarin-1 N48K (Homo sapiens, UniProt P58418, N48K); assay: Image-based analysis of clarin-1 N48K-Venus in HEK 293 cells; format: cell-based
T2 sequence (P58418 1-232 N48K): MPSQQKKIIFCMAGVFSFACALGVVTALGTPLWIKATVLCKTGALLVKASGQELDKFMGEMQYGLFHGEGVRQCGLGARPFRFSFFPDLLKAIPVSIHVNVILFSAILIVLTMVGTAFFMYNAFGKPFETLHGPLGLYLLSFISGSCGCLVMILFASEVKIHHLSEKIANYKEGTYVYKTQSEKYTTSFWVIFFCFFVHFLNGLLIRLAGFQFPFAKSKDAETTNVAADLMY
Description: HEK 293 stable cells co-expressing human clarin-1 N48K-Venus fluorescent protein and DsRed-Express-DR fusion protein were obtained from Dr. Yoshikazu Imanishi at Case Western Reserve University (CWRU). Cells were cultured in DMEM medium with 10% FBS following guidelines from ATCC. To test effects of YC-001 treatments on clarin-1 N48K-Venus amounts in these cells, an image-based assay was performed. Briefly, cells were seeded at 20,000 cells per well in 40 μL per well DMEM medium with 10% FBS in a 384-well PerkinElmer View plate coated with poly-D-lysine and cultured at 37° C. with 5% CO2 for 24 h. Cells then were treated with 10 μL per well DMEM medium with 10% FBS containing 5× the final concentration of tested compounds. […] Each compound was tested with 10 doses in a 2-fold dilution series, featuring 3 biological replicates. The 384-well plate was put back for incubation at 37° C. with 5% CO2. After 24 h of exposure to test compounds, the plate was removed, and the medium was aspirated and replaced by 20 μL per well of 4% paraformaldehyde for fixation at RT for 20 min. […] Images were analyzed by the Columbus storage and analysis system (Perkin Elmer). Hoechst33342 fluorescence images were used to define nuclei and count cells. […] YFP and DsRed fluorescence intensities per cell were measured in each well.

O=C1OCC(c2ccc(Cl)s2)=C1c1cccs1 [YC-001]
amount of YC-001 per eye ([1]; 0.5 h after i.p. injection at 200 mg kg−1 bw): About 70 pmol per eye
amount of YC-001 per eye ([1]; 3 h after i.p. injection at 200 mg kg−1 bw): 280 pmol per eye
amount of YC-001 per eye ([1]; 24 h after i.p. injection at 200 mg kg−1 bw): undetectable
COX-1 enzymatic activity (ovine COX-1): didn't see changes
amount or stability of the clarin-1 N48K mutant (human clarin-1 N48K): did not affect the amount or stability
